Measurements as given in paper PMC9919490, “Synthesis and Biological Evaluation of Novel Dispiro-Indolinones with Anticancer Activity” (Molecules, 2023).

Assay: Acute toxicity
Format: in vivo
Conditions: for body weight (M ± m): i.p. 2500 mg/kg
Experimental: Acute toxicity tests were performed on mature outbred mice (male and female). The design of the experiment is specified in Table S3 (Supplementary Materials).
To select the doses, the pilot experiments were carried out on a minimum number of animals.
The surviving animals were subjected to euthanasia and necropsy on the 29th day of the experiment to study the effects of the test agent on their internal organs.
Outbred mice (males and females) were used in the experiments. Intraperitoneal injections were applied in the posterior third of the abdomen, slightly departing from the midline. The mice were injected with 1 mL of the solution. […] The solution was prepared ex tempore. Doses were calculated for each animal separately, according to body weight data.
The group arithmetic mean (M) and standard error of the mean (m) were calculated. Statistical significance of the differences was assessed using Student’s t-test. The differences between these groups were considered significant at p < 0.05.

Structure (SMILES): CCOc1ccc(N2C(=O)C3(NC2=S)C(c2ccc(Cl)cc2)CN(C)C32C(=O)Nc3ccc(Br)cc32)cc1 (stereo not drawn) [Compound 29]
- autopsy finding (29th day after exposure, intraperitoneal 2500 mg/kg): increase in the liver, with signs of dystrophy
- dynamics of body weight (intraperitoneal 2500 mg/kg, vs control mice): did not show differences from the control mice
- clinical picture of intoxication (intraperitoneal, 2500 mg/kg): depressed state, a decrease in motor activity, and the release of porphyrin
- time after which symptoms of intoxication disappeared (intraperitoneal, 2500 mg/kg): 30 to 60 min
- deaths (intraperitoneal, 2500 mg/kg, observation 28 days): no deaths were registered
- body weight (M ± m) (♀, day 0): 23,8±0,54 grams
- body weight (M ± m) (♀, day 7): 24,0±1,25 grams
- body weight (M ± m) (♀, day 14): 24,5±0,91 grams
- body weight (M ± m) (♀, day 21): 24,0±1,13 grams
- body weight (M ± m) (♀, day 29): 25,0±1,18 grams
- body weight (M ± m) (♂, day 0): 24,6±0,53 grams
- body weight (M ± m) (♂, day 7): 25,2±0,49 grams
- body weight (M ± m) (♂, day 14): 26,9±0,58 grams
- body weight (M ± m) (♂, day 21): 26,0±0,63 grams
- body weight (M ± m) (♂, day 29): 24,1±0,32 grams
